According to BindingDB's records for doi:10.1021/jm701358v (2008):

Molecular target: Bcl-xL (Homo sapiens)
Experiment: Binding affinity to human Bcl-xL protein by fluorescence polarization assay

SMILES: O=C(c1ccc(Oc2ccccc2)cc1)c1cc(C(=O)c2nc3ccccc3s2)c(O)c(O)c1O
- Ki: 1110 nM
